Like-named read-outs stand apart in the source and are kept apart here.
Tests used:
[1] = molecular target: T1, HIV-1 integrase deletion mutant IN1-212 (Human immunodeficiency virus type 1 group M subtype B, UniProt P12497); test: Disintegration assay, IN1-212; format: biochemical
T1 construct: purchased gift of Drs; T. Jenkins and R. Craigie, NIDDK, NIH (not bought)

PBLs = format: cell-based, human
Description: (§1) In other experiments of the effect of T30177 on the viability of primary human PBMCs, PBLs and macrophages was determined using the trypan blue dye exclusion technique. Griffiths, B., IRL Press, p. 48 (1992), or by measuring the degree of [^3H]thymidine or [^3]leucine uptake in these cells (McGrath, M. S., et al. Proc. Natl. Acad. Sci. USA 86:2844-2848 (1989)).
(§2) Cytotoxicity Assays. The cytotoxicity of T30177 was determined using several different cell lines and primary human cells as described above. The cytotoxicity profile obtained for log phase growing cells was variable depending upon the cell line used, while the slower growing PBMCs, PBLs, and macrophages all tolerated the compound at concentrations exceeding 100 μM as monitored using the trypan blue exclusion, [^3H]thymidine uptake, or [^3H]leucine uptake techniques.

Macrophages = format: cell-based, human
Description: as §1, §2

PBMC = format: cell-based, human
Description: as §1, §2

[2] = system: Vesicular Stomatitis virus
[3] = design: species or system cynomolgus monkeys; settings: cynomolgus monkey, in vivo
Description: Dosing. Twelve experimentally naive cynomolgus monkeys were assigned to four groups of three animals each. Prior to dosing, each animal was lightly sedated with a combination of ketamine (1 0 mg/kg) and diazepam (0.5 mg/kg), and a catheter was introduced into the femoral artery for recording central arterial pressure. Monkeys were given a single intravenous infusion of 5, 20, or 50 mg AR177/kg or saline over ten minutes through a cephalic vein catheter using a Harvard infusion pump. […] The concentration of AR177 in dosing solutions was confirmed post experiment by absorbance at 280 nm on a spectrophotometer. […] Electrocardiograms (ECGs), central pressure, and heart rate were recorded continuously for 120 minutes following the initiation of doing. […]
Serum chemistry parameters. The following were determined: sodium, potassium, chloride, carbon dioxide, total bilirubin, direct bilirubin, indirect bilirubin, alkaline phosphatase, lactate dehydrogenase, aspartate aminotransferase, alanine aminotransferase, gamma-glutamyltransferase, calcium, phosphorus, glucose, urea nitrogen, creatinine, uric acid total protein, albumin, globulin, cholesterol and triglycerides. The samples were analyzed at Sierra Nevada Laboratories (Reno, Nev.).

[4] = design: species or system cynomolgus monkeys; settings: cynomolgus monkey, in vivo; remark: listed apart in the source
Description: Serum chemistry parameters. Serum chemistry was determined pre-study, on day 24 (one day after the 12th dose), and on day 37 in the recovery monkeys. The following were determined sodium, potassium, chloride, carbon dioxide, total bilirubin, direct bilirubin, indirect bilirubin alkaline phosphatase, lactate dehydrogenase, aspartate aminotransferase, alanine aminotransferase, gammaglutamyltransferase, calcium, phosphorus, glucose, urea nitrogen, creatinine, uric acid total protein, albumin, globulin, cholesterol and triglycerides. Serum chemistry was determined at Sierra Nevada Laboratories (Reno, Nev.).

[5] = cynomolgus monkey, in vivo
[6] = system: HIV-1 strains (SKI, RF, DV, IIIB, ADP/141); settings: previously reported by Ojwang et al.; cited from earlier work
HIV-1SKI = test: Analysis of replicated viral DNA (Hirt fractions), CEM-SS cells; format: cell-based
Description: Analysis of viral replication. CEM-SS cells (2×10^7) were infected with HIV-1SKI (MOI of I) for 45 minutes at 37 ° C. with gentle mixing. Following virus attachment, the cells were gently pelleted, washed twice and resuspended in complete tissue culture medium. The cells were then divided into aliquots, treated with various concentrations of drug and placed in T75 culture flasks. The cells were incubated at 37° C. for 18-20 hours and then harvested by centriguation. To extract nucleic acids for analysis of HIV-1 integration low- and high-molecular weight DNA were prepared from HIV-1 infected cells (untreated or treated with increasing concentrations of drug) according to the protocol originally described by Hirt (Hirt, B. J., J. Mol. Biol. 26:365-369 (1967)) and modified by Gowda et al., Gowda, et al., J. Immunol. 142:773-780 (1989).
DNA (300 ng), obtained from the low-molecular weight Hirt fractions, was used as the template in PCR analysis undergoing a 30 cycle amplification reaction using the conditions described by Steinkasserer et al. (Steinkasserer, et al., J. Virol. 69:814-824 (1995)). […] PCR products were separated by agarose gel electrophoresis and visualized by ethidium bromide staining.

[7] = molecular target: recombinant HIV-1 integrase (wild-type) (Human immunodeficiency virus type 1 group M subtype B, UniProt P12497); settings: previously reported by Ojwang et al., cited from earlier work
HIV-1DV [8] = test: HIV-1 p24 production in SUP T1 cells; format: cell-based; settings: Human immunodeficiency virus 1, 96 h; SUP T1, HIV-1DV, four days
HIV-1DV [9] = test: Analysis of HIV-1 RNA and DNA in single cycle assays, SUP T1; format: cell-based

Which results are given for “5′-gtggtgggtgggtgggt-3′ (GTGGTGGGTGGGTGGGT; phosphorothioate termini, further chemistry not given here) [T30177, pPT version of parent compound I100-15, 17 mer]”?
IC50 virus-induced cytopathogenicity (Junin virus; Junin virus): >50 µg/mL; MCC minimum concentration altering normal cell morphology (Junin virus; Junin virus assay): >50 μg/mL; IC50 [1]: 600 nM; IC50 virus-induced cytopathogenicity (Vaccinia virus; Vaccinia virus): >200 µg/mL; MCC minimum concentration altering normal cell morphology (Vaccinia virus; Vaccinia virus assay): 400 μg/mL; CC50 (PBLs): > 100000 nM; TC25 (PBLs): >100000 nM; TC95 (PBLs): >100000 nM; CC50 (Macrophages): > 100000 nM; TC25 (Macrophages): >100000 nM; TC95 (Macrophages): >100000 nM; CC50 (PBMC): > 100000 nM; TC25 (PBMC): >100000 nM; TC95 (PBMC): >100000 nM; IC50 virus-induced cytopathogenicity ([2]; Vesicular Stomatitis virus): >200 µg/mL; MCC minimum concentration altering normal cell morphology ([2]; Vesicular Stomatitis virus assay): 400 μg/mL; serum chemistry parameters [3]: no changes; serum chemistry or urinalysis parameters [4]: no treatment-related changes

What does the source list for “5′-gtggtgggtgggtgggt-3′ [T30177] (GTGGTGGGTGGGTGGGT; phosphorothioate termini, further chemistry not given here)”?
histopathology of organs and tissues [5]: No clearly treatment-related histopathologic changes; organ weight [5]: no effects on organ weight; IC50 [6]: 75 nM; extent of viral replication (PCR of Hirt DNA) (HIV-1SKI): up to an including the production of 2-LTR circles; IC50 ([7]; read-out: IC50 3′-PROC): 79 nM; IC50 ([7]; read-out: IC50 STR · TRA): 49 nM; IC50 virus-induced cytopathogenicity (Influenza A (H3N2); Influenza A (H3N2)): >125 µg/mL; MCC minimum concentration altering normal cell morphology (Influenza A (H3N2); Influenza A (H3N2) assay): >200 μg/mL

Which results are given for `Cc1cn([C@H]2C[C@H](N=[N+]=[N-])[C@@H](CO)O2)c(=O)[nH]c1=O` [AZT, 3′-azido-3′-deoxythymidine]?
IC50 (HIV-1DV [8]): 400 nM; viral DNA synthesis (PCR) (HIV-1DV [9]; 36 hr post-infection): marked decrease in viral DNA synthesis; HIV-1 specific transcript (RT-PCR) (HIV-1DV [9]; drug added at zero hours): viral mRNA was still being produced
